For one test, the target named is BcsE (Escherichia coli, UniProt P37657). Description: equilibrium dialysis with purified MBP-BcsE. The class given is binding. In general terms: In equilibrium dialysis only unbound substance equilibrates across the membrane.
For the next test, the target named is T1, YcgR (Escherichia coli, UniProt P76010).
T1 sequence (P76010 1-244): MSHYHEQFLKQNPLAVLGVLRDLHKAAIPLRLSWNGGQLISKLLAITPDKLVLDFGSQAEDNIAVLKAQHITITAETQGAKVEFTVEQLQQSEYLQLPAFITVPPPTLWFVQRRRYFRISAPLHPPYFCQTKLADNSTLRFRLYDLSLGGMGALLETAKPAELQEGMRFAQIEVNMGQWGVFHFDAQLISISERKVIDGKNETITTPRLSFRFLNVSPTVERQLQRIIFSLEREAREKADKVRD
Description: […]-c-di-GMP DRaCALA with cell lysates, competed by unlabeled c-di-GMP. In kind it is cell-based.

These results are taken from article PMC4116459 (Molecular microbiology, 2014).

Chain of BcsE (P37657 whole entry): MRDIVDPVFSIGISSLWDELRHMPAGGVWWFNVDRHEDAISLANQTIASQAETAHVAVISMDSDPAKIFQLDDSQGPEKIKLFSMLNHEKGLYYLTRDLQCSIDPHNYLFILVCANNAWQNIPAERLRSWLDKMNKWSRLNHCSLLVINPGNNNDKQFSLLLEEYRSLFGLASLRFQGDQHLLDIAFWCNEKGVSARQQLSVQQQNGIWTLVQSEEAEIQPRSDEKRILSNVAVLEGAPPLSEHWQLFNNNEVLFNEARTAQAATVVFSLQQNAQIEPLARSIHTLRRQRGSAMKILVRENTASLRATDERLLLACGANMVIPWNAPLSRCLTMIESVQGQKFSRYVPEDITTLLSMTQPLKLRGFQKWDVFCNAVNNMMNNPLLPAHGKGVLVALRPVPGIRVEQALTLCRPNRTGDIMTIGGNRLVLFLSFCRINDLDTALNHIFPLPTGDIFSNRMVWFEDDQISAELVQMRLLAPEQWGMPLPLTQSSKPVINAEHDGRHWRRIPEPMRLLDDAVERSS

For `Nc1nc2c(ncn2[C@@H]2O[C@@H]3COP(=O)(O)O[C@H]4[C@@H](O)[C@H](n5cnc6c(=O)[nH]c(N)nc65)O[C@@H]4COP(=O)(O)O[C@H]3[C@H]2O)c(=O)[nH]1` [c-di-GMP], at BcsE, binding was characterised by a dissociation constant (Kd) of 2420 nM. Further, on YcgR, the “33P-c-di-GMP DRaCALA with cell lysates, competed by unlabeled c-di-GMP” value was “Only the YcgR and Clp lysates produced positive signals (Fig. 1B)”.

By Kd is commonly meant the free concentration of one partner at which half of the binding sites on the other are occupied at equilibrium, for simple one-to-one binding. A higher Kd goes with lower affinity.
